# Measurements published in paper PMC9240354, “Pharmacokinetics, Pharmacodynamics and Antiviral Efficacy of the MEK Inhibitor Zapnometinib in Animal Models and in Humans” (Frontiers in Pharmacology, 2022).
# Test: adverse events in healthy human volunteers (phase 1)
# Type: in vivo
# Settings: n = 8
# Excerpt: Healthy men and women between 18 and 55 years of age (inclusive), who weighed at least 50 kg with a body mass index (BMI) between 18.0 and 31.0 kg/m^2 (inclusive) were enrolled in this study. Exclusion criteria were clinically significant illnesses, positive urine test for selected drugs of abuse, positive alcohol breath test at screening and upon check-in at the clinical site, positive hepatitis panel (including hepatitis B surface antigen [HBsAg] and anti-hepatitis C virus [HCV] antibodies), and positive screens for human immunodeficiency virus (HIV) antibody. This Phase 1 study was a randomized, double-blind, placebo-controlled study (clinicaltrials.gov: NCT04385420) consisting of two parts. Part 1 was a SAD study with 40 healthy volunteers who were randomized to active or placebo treatment in a 4:1 ratio (4 cohorts with n (Zapnometinib) = 8; n (placebo) = 2 in each cohort). Subjects receiving active treatment were treated with either 100 mg, 300 mg, 600 mg, or 900 mg zapnometinib. Part 2 was a MAD study with 30 healthy volunteers in three cohorts with the same randomization as in the SAD part (3 cohorts with n (Zapnometinib) = 8; n (placebo) = 2 in each cohort). Each subject in the MAD cohorts received doses of zapnometinib of either 100 mg, 300 mg, or 600 mg once daily for seven days, or placebo. The safety assessment in this study included monitoring of adverse events (AEs), clinical laboratory tests, electrocardiograms (ECG), vital signs, and physical examination. The study protocol and its amendments were reviewed by the Commissie voor Medische Ethiek ZNA, Antwerp, Belgium. This study was conducted in accordance with the ethical principles that have their origin in the Declaration of Helsinki and the International Council for Harmonization of Technical Requirements for Pharmaceuticals for Human Use (ICH) Note for Guidance on Good Clinical Practice (GCP) (CPMP/ICH/135/95) and with applicable local requirements.
compound,measurement,setting,value
"O=C(O)c1ccc(F)c(F)c1Nc1ccc(I)cc1Cl [zapnometinib, 2-(2-Chloro-4-Iodophenylamino)-N-3,4-Difluoro benzoic acid]",Abdominal pain,100 mg,0 n (%)
same,Back pain,100 mg,0 n (%)
same,Diarrhea,100 mg,0 n (%)
same,Dizziness,100 mg,0 n (%)
same,Erythema,100 mg,0 n (%)
same,Gastrointestinal Disorders,100 mg,0 n (%)
same,Headache,100 mg,0 n (%)
same,Hepatic enzyme increase,100 mg,0 n (%)
same,Infections and Infestations,100 mg,0 n (%)
same,Investigations,100 mg,0 n (%)
same,Nasopharyngitis,100 mg,0 n (%)
same,Neck pain,100 mg,0 n (%)
same,Nervous System Disorders,100 mg,0 n (%)
same,"Respiratory, thoracic and Mediastinal Disorders",100 mg,0 n (%)
same,Rhinorrhea,100 mg,0 n (%)
same,Skin and Subcutaneous Disorders,100 mg,0 n (%)
same,Throat irritation,100 mg,0 n (%)
same,Abdominal pain,300 mg,0 n (%)
same,Back pain,300 mg,1 (12.5) n (%)
same,Diarrhea,300 mg,0 n (%)
same,Dizziness,300 mg,0 n (%)
same,Erythema,300 mg,1 (12.5) n (%)
same,Gastrointestinal Disorders,300 mg,0 n (%)
same,Headache,300 mg,3 (37.5) n (%)
same,Hepatic enzyme increase,300 mg,1 (12.5) n (%)
same,Infections and Infestations,300 mg,1 (12.5) n (%)
same,Investigations,300 mg,1 (12.5) n (%)
same,Nasopharyngitis,300 mg,1 (12.5) n (%)
same,Neck pain,300 mg,1 (12.5) n (%)
same,Nervous System Disorders,300 mg,3 (37.5) n (%)
same,"Respiratory, thoracic and Mediastinal Disorders",300 mg,1 (12.5) n (%)
same,Rhinorrhea,300 mg,1 (12.5) n (%)
same,Skin and Subcutaneous Disorders,300 mg,1 (12.5) n (%)
same,Throat irritation,300 mg,0 n (%)
same,Abdominal pain,600 mg,0 n (%)
same,Back pain,600 mg,0 n (%)
same,Diarrhea,600 mg,0 n (%)
same,Dizziness,600 mg,0 n (%)
same,Erythema,600 mg,0 n (%)
same,Gastrointestinal Disorders,600 mg,0 n (%)
same,Headache,600 mg,1 (12.5) n (%)
same,Hepatic enzyme increase,600 mg,0 n (%)
same,Infections and Infestations,600 mg,0 n (%)
same,Investigations,600 mg,0 n (%)
same,Nasopharyngitis,600 mg,0 n (%)
same,Neck pain,600 mg,0 n (%)
same,Nervous System Disorders,600 mg,1 (12.5) n (%)
same,"Respiratory, thoracic and Mediastinal Disorders",600 mg,0 n (%)
same,Rhinorrhea,600 mg,0 n (%)
same,Skin and Subcutaneous Disorders,600 mg,0 n (%)
same,Throat irritation,600 mg,0 n (%)
same,Abdominal pain,900 mg,1 (12.5) n (%)
same,Back pain,900 mg,0 n (%)
same,Diarrhea,900 mg,1 (12.5) n (%)
same,Dizziness,900 mg,0 n (%)
same,Erythema,900 mg,1 (12.5) n (%)
same,Gastrointestinal Disorders,900 mg,2 (25.0) n (%)
same,Headache,900 mg,1 (12.5) n (%)
same,Hepatic enzyme increase,900 mg,0 n (%)
same,Infections and Infestations,900 mg,0 n (%)
same,Investigations,900 mg,0 n (%)
same,Nasopharyngitis,900 mg,0 n (%)
same,Neck pain,900 mg,0 n (%)
same,Nervous System Disorders,900 mg,1 (12.5) n (%)
same,"Respiratory, thoracic and Mediastinal Disorders",900 mg,1 (12.5) n (%)
same,Rhinorrhea,900 mg,0 n (%)
same,Skin and Subcutaneous Disorders,900 mg,1 (12.5) n (%)
same,Throat irritation,900 mg,1 (12.5) n (%)
